According to the NIST ThermoML archive (doi:10.1021/je5005752):

Assay: xn = mol fraction of the nth substance listed
Conditions: 101 kPa, Liquid; for viscosity: Falling or rolling sphere viscometry; for mass density: Vibrating tube method

CCCC(=O)OCC [ethyl butanoate] + CC(C)CO
Conditions | mass density [kg/m3] | viscosity [mPa·s]
288.15 K, x1 = 0.1 | 816.01 | 2.899
288.15 K, x1 = 0.2001 | 825.5 | 2
288.15 K, x1 = 0.3001 | 834.2 | 1.516
288.15 K, x1 = 0.3999 | 842.57 | 1.24
288.15 K, x1 = 0.5 | 850.43 | 1.057
288.15 K, x1 = 0.5999 | 857.77 | 0.9319
288.15 K, x1 = 0.7001 | 864.75 | 0.8287
288.15 K, x1 = 0.8001 | 871.45 | 0.785
288.15 K, x1 = 0.8997 | 877.93 | 0.7449
288.15 K, x1 = 1 | 884.16 | 0.7224
293.15 K, x1 = 0.1 | 811.92 | 2.51
293.15 K, x1 = 0.2001 | 821.21 | 1.768
293.15 K, x1 = 0.3001 | 829.72 | 1.363
293.15 K, x1 = 0.3999 | 837.92 | 1.129
293.15 K, x1 = 0.5 | 845.64 | 0.9727
293.15 K, x1 = 0.5999 | 852.86 | 0.8638
293.15 K, x1 = 0.7001 | 859.73 | 0.7883
293.15 K, x1 = 0.8001 | 866.33 | 0.7356
293.15 K, x1 = 0.8997 | 872.73 | 0.7006
293.15 K, x1 = 1 | 878.9 | 0.6808
298.15 K, x1 = 0.1 | 807.82 | 2.19
298.15 K, x1 = 0.2001 | 816.89 | 1.571
298.15 K, x1 = 0.3001 | 825.21 | 1.233
298.15 K, x1 = 0.3999 | 833.26 | 1.032
298.15 K, x1 = 0.5 | 840.84 | 0.8977
298.15 K, x1 = 0.5999 | 847.92 | 0.8022
298.15 K, x1 = 0.7001 | 854.69 | 0.7366
298.15 K, x1 = 0.8001 | 861.2 | 0.6907
298.15 K, x1 = 0.8997 | 867.52 | 0.6599
298.15 K, x1 = 1 | 873.62 | 0.643
303.15 K, x1 = 0.1 | 803.67 | 1.92
303.15 K, x1 = 0.2001 | 812.54 | 1.406
303.15 K, x1 = 0.3001 | 820.68 | 1.118
303.15 K, x1 = 0.3999 | 828.56 | 0.9462
303.15 K, x1 = 0.5 | 836 | 0.8309
303.15 K, x1 = 0.5999 | 842.97 | 0.7472
303.15 K, x1 = 0.7001 | 849.63 | 0.6895
303.15 K, x1 = 0.8001 | 856.05 | 0.6488
303.15 K, x1 = 0.8997 | 862.29 | 0.6217
303.15 K, x1 = 1 | 868.33 | 0.6072
308.15 K, x1 = 0.1 | 799.49 | 1.693
308.15 K, x1 = 0.2001 | 808.15 | 1.262
308.15 K, x1 = 0.3001 | 816.12 | 1.018
308.15 K, x1 = 0.3999 | 823.84 | 0.8702
308.15 K, x1 = 0.5 | 831.14 | 0.7709
308.15 K, x1 = 0.5999 | 837.99 | 0.6967
308.15 K, x1 = 0.7001 | 844.55 | 0.6458
308.15 K, x1 = 0.8001 | 850.88 | 0.6101
308.15 K, x1 = 0.8997 | 857.04 | 0.5862
308.15 K, x1 = 1 | 863.02 | 0.5736
313.15 K, x1 = 0.1 | 795.27 | 1.501
313.15 K, x1 = 0.2001 | 803.72 | 1.137
313.15 K, x1 = 0.3001 | 811.51 | 0.9295
313.15 K, x1 = 0.3999 | 819.09 | 0.8021
313.15 K, x1 = 0.5 | 826.25 | 0.7166
313.15 K, x1 = 0.5999 | 832.98 | 0.6507
313.15 K, x1 = 0.7001 | 839.44 | 0.6059
313.15 K, x1 = 0.8001 | 845.69 | 0.5742
313.15 K, x1 = 0.8997 | 851.78 | 0.5531
313.15 K, x1 = 1 | 857.7 | 0.5425
318.15 K, x1 = 0.1 | 791 | 1.337
318.15 K, x1 = 0.2001 | 799.25 | 1.029
318.15 K, x1 = 0.3001 | 806.87 | 0.8513
318.15 K, x1 = 0.3999 | 814.29 | 0.7413
318.15 K, x1 = 0.5 | 821.33 | 0.6676
318.15 K, x1 = 0.5999 | 827.95 | 0.6086
318.15 K, x1 = 0.7001 | 834.31 | 0.569
318.15 K, x1 = 0.8001 | 840.47 | 0.5409
318.15 K, x1 = 0.8997 | 846.5 | 0.5224
318.15 K, x1 = 1 | 852.36 | 0.5132
323.15 K, x1 = 0.1 | 786.67 | 1.219
323.15 K, x1 = 0.2001 | 794.73 | 0.9403
323.15 K, x1 = 0.3001 | 802.18 | 0.785
323.15 K, x1 = 0.3999 | 809.46 | 0.6914
323.15 K, x1 = 0.5 | 816.36 | 0.6257
323.15 K, x1 = 0.5999 | 822.87 | 0.5716
323.15 K, x1 = 0.7001 | 829.14 | 0.5382
323.15 K, x1 = 0.8001 | 835.23 | 0.5126
323.15 K, x1 = 0.8997 | 841.18 | 0.4958
323.15 K, x1 = 1 | 847 | 0.487
